Experimental data taken from patent US20240018120A1, “MAGL INHIBITORS” (H. LUNDBECK A/S, priority 2020, published 2024).

Assays:
[1] = tested on: rat formalin paw model of inflammatory pain; assay: Rat formalin paw model of inflammatory pain; type: in vivo; conditions: 0.6 mg/kg, 3 mg/kg and 10 mg/kg oral, 4 h pre-test; early and/or late phases; vs vehicle
Experimental: In the rat formalin paw model formalin is administered into the right […] of a rat in order to induce pain (observed by hind limb licking duration and frequency).
Male Sprague Dawley rats were divided into three cohorts to enable testing in the Laboras™ equipment to be carried out over three days in a balanced design to give treatment groups of 10. On the day of the study, male Sprague Dawley rats were weighed, tail marked and dosed orally with vehicle, test compound (0.1, 0.3, 0.6, 1, 3 or 10 mg/kg) or pregabalin (30 mg/kg) 4 h pre-test using a 5 mL/kg dosing volume. For Example 6 the vehicle used was 0.5% methylcellulose in water and for Example 8 the vehicle used was 20% HP-b-CD. Up to six animals were dosed at a time. After 4 h, rats received an intraplantar injection of 50 μL of a 2.5% v/v formalin solution into the right hind paw. Rats were immediately placed into the Laboras™ cages and data acquisition started. The primary measures recorded by Laboras™ for the formalin paw model are hind limb licking duration and frequency. Locomotion is also reported as maximum speed, average speed when moving or over the whole-time bin and distance travelled. After 40 min, when data acquisition was complete, rats were removed from the cages.
On removal from the test cages, rats were anaesthetised with the gaseous anaesthetic isoflurane (5% v/v isoflurane in oxygen) and blood samples were collected by cardiac puncture. Brains were then removed, rinsed in phosphate buffered saline (PBS), hemi-sected and frozen separately in liquid nitrogen.
Data were analysed with Statistica software (TIBCO, USA version 11.1). All data are expressed as means±standard error of the mean (sem) to one decimal place. […] Time course data were analysed by repeated measures analysis of variance (ANOVA) followed by one-way ANOVAs at each time point and subsequent Dunnett's post hoc tests. […]

[2] = tested on: maximal electroshock seizure threshold (MEST) model; assay: Maximal electroshock seizure threshold (MEST) model in the rat; type: in vivo; conditions: 10 mg/kg p.o., 240 min pre-treatment
Experimental: In the MEST model, a low-intensity electrical current of high frequency and short duration is applied to induce tonic convulsions.
Animals were randomly assigned to vehicle, compound treatment or Lamotrigine dose groups. Animals were dosed at 5 mL/kg according to treatment groups (n=12 or 16/group), with either vehicle (0.5% MC) p.o. for Example 6, vehicle (10% HP-b-CD) for Example 8, test compound at 10 mg/kg p.o. 240 min pre-treatment time, or Lamotrigine p.o. 360 min pre-treatment time. Rats were individually assessed for production of a tonic hind limb extensor seizure following a single corneally delivered electroshock of 0.3 second duration, using an ‘up and down method’ of shock titration (Kimball A W et al., 1957). Thus, the first rat within a treatment group was given a shock at the expected or estimated CC50 current (current producing tonic hind limb extensor seizures in 50% of animals). […] This procedure was continued for all rats within a treatment group. Induction of seizure was measured as an all-or-nothing effect scored as either present (+) or absent (0) for each animal. […]
Significant differences between drug-treated animals and controls were assessed according to Litchfield and Wilcoxon (1949) or One-Way ANOVA followed by Dunnett's multiple comparisons test.

MAGL = target: T1, MAGL (Homo sapiens, UniProt Q99685); assay: In vitro competitive activity-based protein profiling, PC3 human cell membrane proteomes; type: biochemical; set-up: endogenous in cells; host or cells: PC3 human cells (membrane proteome); conditions: human PC3 membrane proteome
T1 sequence (Q99685 1-303): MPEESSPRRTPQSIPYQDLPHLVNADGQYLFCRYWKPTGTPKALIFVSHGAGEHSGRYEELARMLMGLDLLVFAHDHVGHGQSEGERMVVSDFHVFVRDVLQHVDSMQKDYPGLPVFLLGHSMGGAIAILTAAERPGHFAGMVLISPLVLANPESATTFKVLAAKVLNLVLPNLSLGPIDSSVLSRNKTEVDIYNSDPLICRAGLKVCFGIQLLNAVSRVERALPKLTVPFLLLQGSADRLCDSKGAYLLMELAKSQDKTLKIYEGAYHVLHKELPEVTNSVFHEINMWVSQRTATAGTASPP
In short: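 Competitive ABPP in PC3 membrane proteome (2.0 mg/mL protein): inhibitors preincubated 30 min at 37° C, then JW912-Bodipy probe added for 30 min at room temperature. MAGL band fluorescence after SDS-PAGE normalised to DMSO; IC50 from 4-parameter sigmoidal fit.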

O=C(Nc1cccnn1)[C@H]1CC12CCN(C(=O)OC(C(F)(F)F)C(F)(F)F)CC2 [Example 6, 1,1,1,3,3,3-Hexafluoropropan-2-yl (S)-1-(pyridazin-3-ylcarbamoyl)-6-azaspiro[2.5]octane-6-carboxylate]
measure of spontaneous pain (hind limb licking frequency) [1]: statistically significant reduction | anticonvulsant activity in the MEST (seizure threshold CC50) [2]: anticonvulsant activity | IC50 (MAGL): 0.0046 µM
